In publication PMC12078333, “Pharmacokinetic evaluation and bioavailability of KPT-335 (Verdinexor) in cats” (Frontiers in Veterinary Science, 2025):
Values joined by “and” are separate entries in the source; they are usually repeats but may differ in a detail not shown here. Equal values may be shown once. Read-outs that look alike come from different tables or passages of the source.

Assay: Pharmacokinetics study of KPT-335 in cats (i.v. injection, p.o. capsules and tablets; UPLC-MS/MS, non-compartmental analysis)
Assay type: in vivo
Details: for Plasma concentration: individual cats 1-6; for AUC(0-t) / Cmax: plasma
Experimental: In this study, a parallel trial design was employed, 42 adult domestic cats (21 males and 21 females), aged 1 to 2 years and weighing 2.5 ± 0.25 kg. Cats were grouped by random number, with half male and female in each group, and all cats were determined to be systemically healthy during an initial screening visit 1 week prior to the experiment. They were acclimatized to the laboratory environment for 7 days before the study commenced. During this period, they were kept in solitary cages with free access to water. Cats in the fasting group were deprived of food for 12 h prior to and 2 h following drug administration, while those in the feeding group were fed twice a day. Food and water sources were consistent throughout the trail. During and at the end of the experiment, we systematically assessed the adverse reactions by recording parameters such as body weight, behavior, and coat gloss in all test cats both before and after the trial. These observations were conducted to evaluate whether any adverse reactions occurred. All procedures were reviewed and approved by the Institutional Animal Care and Use Committee of China Agricultural University (11305-23-E-002).
The UPLC-MS/MS system utilized a UPLC 1290 (Agilent) paired with a Phenomenex Kinetex C18 column (50 mm × 2.1 mm, 2.6 μm) for separation at a flow rate of 0.3 mL/min. The chromatographic mobile phase comprised water (A) and acetonitrile (B), both containing 0.1% formic acid. The gradient elution program was as follows: from 0.5 to 2.5 min, 10 to 95% B; from 2.5 to 4.5 min, 95% B; from 4.5 to 4.6 min, 95 to 10% B; and from 4.6 to 6.0 min, 10% B. The injection volume was 2 μL.
For mass spectrometry, an Agilent 6,475-LC-TQ equipped with an electrospray ion source was used. Multiple Reaction Monitoring (MRM) was selected to quantify KPT-335 in the positive ion mode. The ion transitions monitored were m/z 443.1 → 334.0 and 443.1 → 110.1 for KPT-335, and m/z 444.1 → 334.0 for the internal standard (IS). The cone voltage and collision energy were optimized for KPT-335 and the IS individually, set at 160 V and 25 eV, respectively. The optimized parameters for the instrument included an ion source temperature of 350°C, solvent removal temperature of 320°C, capillary voltage of 3.0 kV, and a solvent gas flow rate of 300 L/h.
The method was developed based on prior research conducted in the laboratory ([16]) and validated in accordance with international guidelines ([17]). The calibration concentration range for KPT-335 spanned from 0.5 to 100 ng/mL, with a lower limit of quantification (LLOQ) set at 0.5 ng/mL. The squared correlation coefficient (R^2) values exceeded 0.999, indicating high linearity.
For sample preparation, 100 μL of plasma was mixed with 10 μL of internal standard (IS) and 900 μL of acetonitrile, followed by vortexing for 2 min. The mixture was then centrifuged at 13,400 × g at 4°C for 10 min. The supernatant was filtered through a 0.22 μm organic membrane, and the resulting sample was analyzed using UPLC-MS/MS.
Cats were divided into seven groups, with six cats in each group. In the intravenous (i.v.) group (Group 1), cats received an injection of KPT-335 at a dosage of 1 mg/kg body weight (BW), administered via a bolus through a venous infusion needle. For the oral (p.o.) administration, cats were given capsules in a fasting state at doses of 0.2 mg/kg BW (Group 2), 1 mg/kg BW (Group 3), and 2 mg/kg BW (Group 4). Additionally, tablets were administered at 1 mg/kg BW (fasting, Group 5), 1 mg/kg BW (Group 6), and 2 mg/kg BW (Group 7) in a feeding state, followed by 3 mL of water delivered with a syringe.
For the p.o. administration, blood samples of 1.5 mL were collected via the brachial cephalic vein prior to administration and at 0.167, 0.333, 0.5, 0.75, 1, 1.5, 2, 4, 6, 8, 12, 24, 32, and 48 h post-administration. […]

[1] = cats, i.v., Injection, 1 mg/kg BW
[2] = cats, p.o., Capsule, Fasting, 0.2 mg/kg BW
[3] = cats, p.o., Capsule, Fasting, 1 mg/kg BW
[4] = cats, p.o., Capsule, Fasting, 2 mg/kg BW
[5] = cats, p.o., Tablet, Fasting, 1 mg/kg BW
[6] = cats, p.o., Tablet, Feeding, 1 mg/kg BW

O=C(/C=C\n1cnc(-c2cc(C(F)(F)F)cc(C(F)(F)F)c2)n1)NNc1ccccn1 [KPT-335]
Plasma concentration (cats, i.v. 1 mg/kg BW, 1 h, 1 mg/kg, in ng/mL): 643.90 and 242.31 and 664.36 and 555.75 and 518.04 and 558.85
Plasma concentration (cats, i.v. 1 mg/kg BW, 2 h, 1 mg/kg, in ng/mL): 490.02 and 194.67 and 604.45 and 427.47 and 433.50 and 495.92
Plasma concentration (cats, i.v. 1 mg/kg BW, 4 h, 1 mg/kg, in ng/mL): 278.69 and 140.14 and 326.77 and 250.68 and 245.55 and 286.46
Plasma concentration (cats, i.v. 1 mg/kg BW, 8 h, 1 mg/kg, in ng/mL): 92.64 and 60.90 and 157.56 and 64.79 and 88.37 and 110.98
Plasma concentration (cats, i.v. 1 mg/kg BW, 12 h, 1 mg/kg, in ng/mL): 91.54 and 31.99 and 27.73 and 24.10 and 36.17 and 25.48
Plasma concentration (cats, i.v. 1 mg/kg BW, 24 h, 1 mg/kg): 2.04 ng/mL and 1.82 ng/mL
Plasma concentration (cats, i.v. 1 mg/kg BW, 24 h, 1 mg/kg, in ng/mL): 11.88 and 15.46 and 18.84 and 11.18
Plasma concentration (cats, i.v. 1 mg/kg BW, 32 h, 1 mg/kg): 2.52 and 2.36 and 9.45 and 1.34 and 8.61 and BLOQ
Plasma concentration (cats, i.v. 1 mg/kg BW, 48 h): BLOQ
AUC_%Extrap_obs [1]: 0.83 ± 0.69%
HL_Lambda_z [1]: 3.93 ± 0.84 h
reduction of absolute bioavailability when dosage is increased to 2 mg/kg BW (cats, p.o.): 15–25%
AUC_%Extrap_obs [2]: 7.53 ± 7.79%
HL_Lambda_z [2]: 7.04 ± 3.26 h
AUC_%Extrap_obs [3]: 0.47 ± 0.13%
HL_Lambda_z [3]: 5.37 ± 1.01 h
AUC_%Extrap_obs [4]: 0.75 ± 0.38%
HL_Lambda_z [4]: 6.78 ± 0.97 h
AUC_%Extrap_obs [5]: 0.82 ± 0.39%
HL_Lambda_z [5]: 5.76 ± 1.16 h
AUC_%Extrap_obs [6]: 0.92 ± 1.43%
HL_Lambda_z [6]: 4.20 ± 1.26 h
AUC_%Extrap_obs (cats, p.o., Tablet, Feeding, 2 mg/kg BW): 0.39 ± 0.24%
HL_Lambda_z (cats, p.o., Tablet, Feeding, 2 mg/kg BW, 2 mg/kg): 3.54 h and 3.54 ± 0.81 h
impact of feeding on the AUC (cats, tablet 1 mg/kg BW fasting vs feeding): minimal to no impact
Plasma concentration (cats, tablet p.o. 1 mg/kg BW after fasting, 48 h, 1 mg/kg): BLOQ
Plasma concentration (cats, tablet p.o. 1 mg/kg BW after feeding, 24 h, 1 mg/kg): BLOQ
Plasma concentration (cats, tablet p.o. 1 mg/kg BW after feeding, 32 h, 1 mg/kg): BLOQ
Plasma concentration (cats, tablet p.o. 1 mg/kg BW after feeding, 48 h, 1 mg/kg): BLOQ
Plasma concentration (cats, tablet p.o. 2 mg/kg BW after feeding, 32 h, 2 mg/kg): BLOQ
Plasma concentration (cats, tablet p.o. 2 mg/kg BW after feeding, 48 h): BLOQ
AUC(0-t) (female, iv, 1 mg/kg, female cats, i.v., Injection, 1 mg/kg BW, read-out: AUClast Value females): 3060 ± 193 ng·h/mL
Cmax (female, iv, 1 mg/kg, female cats, i.v., Injection, 1 mg/kg BW, read-out: Cmax Value females): 886 ± 54 ng/mL
AUC(0-t) (female, po, 0.2 mg/kg, female cats, p.o., Capsule, Fasting, 0.2 mg/kg BW, read-out: AUClast Value females): 244 ± 23.4 ng·h/mL
Cmax (female, po, 0.2 mg/kg, female cats, p.o., Capsule, Fasting, 0.2 mg/kg BW, read-out: Cmax Value females): 31.1 ± 11.2 ng/mL
AUC(0-t) (female, po, 1 mg/kg, female cats, p.o., Capsule, Fasting, 1 mg/kg BW, read-out: AUClast Value females): 1490 ± 292 ng·h/mL
Cmax (female, po, 1 mg/kg, female cats, p.o., Capsule, Fasting, 1 mg/kg BW, read-out: Cmax Value females): 284 ± 95.8 ng/mL
AUC(0-t) (female, po, 1 mg/kg, female cats, p.o., Tablet, Fasting, 1 mg/kg BW, read-out: AUClast Value females): 2480 ± 1160 ng·h/mL
Cmax (female, po, 1 mg/kg, female cats, p.o., Tablet, Fasting, 1 mg/kg BW, read-out: Cmax Value females): 220 ± 48.4 ng/mL
AUC(0-t) (female, po, 1 mg/kg, female cats, p.o., Tablet, Feeding, 1 mg/kg BW, read-out: AUClast Value females): 2660 ± 1870 ng·h/mL
Cmax (female, po, 1 mg/kg, female cats, p.o., Tablet, Feeding, 1 mg/kg BW, read-out: Cmax Value females): 467 ± 139 ng/mL
AUC(0-t) (female, po, 2 mg/kg, female cats, p.o., Capsule, Fasting, 2 mg/kg BW, read-out: AUClast Value females): 1830 ± 39.6 ng·h/mL
Cmax (female, po, 2 mg/kg, female cats, p.o., Capsule, Fasting, 2 mg/kg BW, read-out: Cmax Value females): 233 ± 52.4 ng/mL
AUC(0-t) (female, po, 2 mg/kg, female cats, p.o., Tablet, Feeding, 2 mg/kg BW, read-out: AUClast Value females): 2840 ± 1090 ng·h/mL
Cmax (female, po, 2 mg/kg, female cats, p.o., Tablet, Feeding, 2 mg/kg BW, read-out: Cmax Value females): 538 ± 150 ng/mL
AUC(0-t) (male, iv, 1 mg/kg, male cats, i.v., Injection, 1 mg/kg BW, read-out: AUClast Value males): 3290 ± 1300 ng·h/mL
Cmax (male, iv, 1 mg/kg, male cats, i.v., Injection, 1 mg/kg BW, read-out: Cmax Value males): 816 ± 443 ng/mL
AUC(0-t) (male, po, 0.2 mg/kg, male cats, p.o., Capsule, Fasting, 0.2 mg/kg BW, read-out: AUClast Value males): 312 ± 241 ng·h/mL
Cmax (male, po, 0.2 mg/kg, male cats, p.o., Capsule, Fasting, 0.2 mg/kg BW, read-out: Cmax Value males): 24.1 ± 6.3 ng/mL
AUC(0-t) (male, po, 1 mg/kg, male cats, p.o., Capsule, Fasting, 1 mg/kg BW, read-out: AUClast Value males): 1340 ± 704 ng·h/mL
Cmax (male, po, 1 mg/kg, male cats, p.o., Capsule, Fasting, 1 mg/kg BW, read-out: Cmax Value males): 237 ± 56.7 ng/mL
AUC(0-t) (male, po, 1 mg/kg, male cats, p.o., Tablet, Fasting, 1 mg/kg BW, read-out: AUClast Value males): 2340 ± 453 ng·h/mL
Cmax (male, po, 1 mg/kg, male cats, p.o., Tablet, Fasting, 1 mg/kg BW, read-out: Cmax Value males): 307 ± 183 ng/mL
AUC(0-t) (male, po, 1 mg/kg, male cats, p.o., Tablet, Feeding, 1 mg/kg BW, read-out: AUClast Value males): 1850 ± 11.1 ng·h/mL
Cmax (male, po, 1 mg/kg, male cats, p.o., Tablet, Feeding, 1 mg/kg BW, read-out: Cmax Value males): 261 ± 38.3 ng/mL
AUC(0-t) (male, po, 2 mg/kg, male cats, p.o., Capsule, Fasting, 2 mg/kg BW, read-out: AUClast Value males): 1850 ± 1290 ng·h/mL
Cmax (male, po, 2 mg/kg, male cats, p.o., Capsule, Fasting, 2 mg/kg BW, read-out: Cmax Value males): 328 ± 259 ng/mL
AUC(0-t) (male, po, 2 mg/kg, male cats, p.o., Tablet, Feeding, 2 mg/kg BW, read-out: AUClast Value males): 3160 ± 107 ng·h/mL
Cmax (male, po, 2 mg/kg, male cats, p.o., Tablet, Feeding, 2 mg/kg BW, read-out: Cmax Value males): 580 ± 56 ng/mL
